According to ChEMBL document CHEMBL5465560, “Selectivity Literature for EUbOPEN Chemogenomic Library” (2024):
Blank lines part the entries; values can stand above or below the molecule they belong to.

Key:
[1] = molecular target: Transcription initiation factor TFIID subunit 1-like (Homo sapiens) (UniProt Q8IZX4); experiment: Selectivity interaction (Human bromodomain panel (DSF assay)) EUB0000233b TAF1L
[2] = molecular target: T1, Serine/threonine-protein kinase NLK (Homo sapiens) (UniProt Q9UBE8); experiment: Selectivity interaction (KinomeScan (DiscoverX)) EUB0000666a NLK; details: at 10 µM
T1 sequence (whole entry): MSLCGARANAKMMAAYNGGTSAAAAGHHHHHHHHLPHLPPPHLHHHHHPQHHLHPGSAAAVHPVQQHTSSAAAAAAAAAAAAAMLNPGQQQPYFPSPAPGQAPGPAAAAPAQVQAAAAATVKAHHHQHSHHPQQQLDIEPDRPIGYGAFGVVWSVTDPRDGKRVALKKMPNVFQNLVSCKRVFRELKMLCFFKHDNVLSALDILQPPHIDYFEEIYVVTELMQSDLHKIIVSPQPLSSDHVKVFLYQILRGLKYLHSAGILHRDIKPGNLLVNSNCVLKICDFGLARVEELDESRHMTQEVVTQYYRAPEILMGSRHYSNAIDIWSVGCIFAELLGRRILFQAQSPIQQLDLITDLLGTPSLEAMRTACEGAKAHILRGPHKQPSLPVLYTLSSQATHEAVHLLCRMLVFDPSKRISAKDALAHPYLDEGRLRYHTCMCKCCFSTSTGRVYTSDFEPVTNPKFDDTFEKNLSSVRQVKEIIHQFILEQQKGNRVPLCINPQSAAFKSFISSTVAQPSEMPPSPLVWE

[3] = molecular target: Alpha-1A adrenergic receptor (Homo sapiens, UniProt P35348); experiment: Selectivity interaction (Alpha1A calcium flux assay ) EUB0000877a ADRA1A
[4] = molecular target: T2, Serine/threonine-protein kinase 3 (Homo sapiens) (UniProt Q13188); experiment: Selectivity interaction (ActivX KiNativ screen (kinase selectivity in THP-1 cell lysates)) EUB0000639a STK3; format: subcellular; details: lysate
T2 sequence (whole entry): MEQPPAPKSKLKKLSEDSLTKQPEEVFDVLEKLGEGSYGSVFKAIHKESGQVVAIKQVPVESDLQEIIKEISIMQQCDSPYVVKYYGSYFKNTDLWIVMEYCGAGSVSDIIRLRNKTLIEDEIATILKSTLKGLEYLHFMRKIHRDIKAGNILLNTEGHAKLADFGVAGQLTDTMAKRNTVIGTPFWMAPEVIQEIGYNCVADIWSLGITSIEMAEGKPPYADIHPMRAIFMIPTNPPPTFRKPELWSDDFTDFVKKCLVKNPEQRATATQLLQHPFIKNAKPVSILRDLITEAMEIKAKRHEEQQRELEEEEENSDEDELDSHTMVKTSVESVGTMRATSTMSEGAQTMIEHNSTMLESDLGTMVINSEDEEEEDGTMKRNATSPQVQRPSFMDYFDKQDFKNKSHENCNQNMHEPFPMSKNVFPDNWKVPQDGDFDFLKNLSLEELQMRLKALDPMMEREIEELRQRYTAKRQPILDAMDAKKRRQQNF

[5] = molecular target: Ribosomal protein S6 kinase beta-1 (Homo sapiens, UniProt P23443); experiment: Selectivity interaction (KinomeScan (DiscoverX)) EUB0000595a RPS6KB1; details: at 10 µM
[6] = molecular target: Epidermal growth factor receptor (Homo sapiens, UniProt P00533); experiment: Selectivity interaction (Millipore kinase profiler) EUB0000124b EGFR; details: at 10 µM
[7] = molecular target: T3, Tyrosine-protein kinase receptor TYRO3 (Homo sapiens) (UniProt Q06418); experiment: Selectivity interaction (KinomeScan (DiscoverX)) EUB0000229b TYRO3; details: at 10 µM
T3 sequence (whole entry): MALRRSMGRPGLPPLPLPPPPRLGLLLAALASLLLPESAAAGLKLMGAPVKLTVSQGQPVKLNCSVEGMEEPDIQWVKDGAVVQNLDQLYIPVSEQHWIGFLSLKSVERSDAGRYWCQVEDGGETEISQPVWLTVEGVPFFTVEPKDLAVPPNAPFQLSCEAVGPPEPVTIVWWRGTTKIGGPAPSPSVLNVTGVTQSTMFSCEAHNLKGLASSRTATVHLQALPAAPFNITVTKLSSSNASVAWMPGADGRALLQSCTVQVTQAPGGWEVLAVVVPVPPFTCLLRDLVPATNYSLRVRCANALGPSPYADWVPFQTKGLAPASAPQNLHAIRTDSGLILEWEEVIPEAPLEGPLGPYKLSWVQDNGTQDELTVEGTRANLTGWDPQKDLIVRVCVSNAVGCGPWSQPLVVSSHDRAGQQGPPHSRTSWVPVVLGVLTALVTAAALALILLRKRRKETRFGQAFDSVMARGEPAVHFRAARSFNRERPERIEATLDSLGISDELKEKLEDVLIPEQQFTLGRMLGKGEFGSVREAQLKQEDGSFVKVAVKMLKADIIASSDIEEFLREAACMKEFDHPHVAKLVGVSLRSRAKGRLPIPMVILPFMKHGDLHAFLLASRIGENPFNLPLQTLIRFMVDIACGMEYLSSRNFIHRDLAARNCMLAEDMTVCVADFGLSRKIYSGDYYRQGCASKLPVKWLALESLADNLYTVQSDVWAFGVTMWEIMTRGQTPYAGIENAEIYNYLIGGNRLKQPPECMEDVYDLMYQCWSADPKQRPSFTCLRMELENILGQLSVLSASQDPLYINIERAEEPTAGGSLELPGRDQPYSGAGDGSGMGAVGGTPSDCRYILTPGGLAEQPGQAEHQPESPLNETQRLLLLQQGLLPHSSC

[8] = molecular target: T4, 3-phosphoinositide-dependent protein kinase 1 (Homo sapiens) (UniProt O15530); details: at 10 µM
T4 sequence (whole entry): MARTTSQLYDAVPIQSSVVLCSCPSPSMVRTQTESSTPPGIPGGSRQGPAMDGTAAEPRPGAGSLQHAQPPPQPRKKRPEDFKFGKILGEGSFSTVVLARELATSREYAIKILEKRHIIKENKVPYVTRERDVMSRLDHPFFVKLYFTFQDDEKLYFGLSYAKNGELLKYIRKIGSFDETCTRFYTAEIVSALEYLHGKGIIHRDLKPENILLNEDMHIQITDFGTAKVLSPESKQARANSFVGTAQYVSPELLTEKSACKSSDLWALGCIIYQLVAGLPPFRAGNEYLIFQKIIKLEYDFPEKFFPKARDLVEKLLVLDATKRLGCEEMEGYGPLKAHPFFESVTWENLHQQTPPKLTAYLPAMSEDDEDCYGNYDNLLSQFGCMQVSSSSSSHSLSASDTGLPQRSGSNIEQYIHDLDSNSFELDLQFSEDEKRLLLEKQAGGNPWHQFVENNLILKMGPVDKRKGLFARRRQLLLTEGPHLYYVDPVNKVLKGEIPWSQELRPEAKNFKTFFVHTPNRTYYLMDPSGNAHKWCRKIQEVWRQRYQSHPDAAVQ

Sequence of Ribosomal protein S6 kinase beta-1 (P23443 whole entry, looked up): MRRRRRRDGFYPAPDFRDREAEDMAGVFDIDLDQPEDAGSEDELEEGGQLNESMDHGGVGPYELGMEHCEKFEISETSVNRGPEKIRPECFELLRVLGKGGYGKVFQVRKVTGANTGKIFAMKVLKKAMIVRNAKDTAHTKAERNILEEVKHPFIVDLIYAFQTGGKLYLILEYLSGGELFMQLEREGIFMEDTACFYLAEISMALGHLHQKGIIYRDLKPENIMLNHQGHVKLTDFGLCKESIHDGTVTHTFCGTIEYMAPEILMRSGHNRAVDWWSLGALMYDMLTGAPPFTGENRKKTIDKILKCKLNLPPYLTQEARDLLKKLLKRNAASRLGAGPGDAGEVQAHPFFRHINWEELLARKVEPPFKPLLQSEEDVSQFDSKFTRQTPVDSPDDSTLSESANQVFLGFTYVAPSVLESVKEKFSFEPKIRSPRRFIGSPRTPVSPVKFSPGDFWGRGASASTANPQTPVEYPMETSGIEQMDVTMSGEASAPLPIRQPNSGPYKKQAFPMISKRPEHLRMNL
Sequence of Alpha-1A adrenergic receptor (P35348 whole entry): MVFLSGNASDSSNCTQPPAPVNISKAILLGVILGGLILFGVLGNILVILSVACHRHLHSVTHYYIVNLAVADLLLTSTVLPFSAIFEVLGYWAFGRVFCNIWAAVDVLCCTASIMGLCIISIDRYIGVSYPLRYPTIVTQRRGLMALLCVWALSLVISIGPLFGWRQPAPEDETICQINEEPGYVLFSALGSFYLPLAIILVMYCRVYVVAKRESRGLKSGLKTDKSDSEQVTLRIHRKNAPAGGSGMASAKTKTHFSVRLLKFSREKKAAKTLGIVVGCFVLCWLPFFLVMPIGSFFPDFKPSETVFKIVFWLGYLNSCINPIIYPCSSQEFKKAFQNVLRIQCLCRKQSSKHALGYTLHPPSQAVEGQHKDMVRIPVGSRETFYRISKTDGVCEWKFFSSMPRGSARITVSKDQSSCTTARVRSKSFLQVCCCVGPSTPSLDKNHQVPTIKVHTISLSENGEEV
Sequence of Transcription initiation factor TFIID subunit 1-like (Homo sapiens) (Q8IZX4 whole entry): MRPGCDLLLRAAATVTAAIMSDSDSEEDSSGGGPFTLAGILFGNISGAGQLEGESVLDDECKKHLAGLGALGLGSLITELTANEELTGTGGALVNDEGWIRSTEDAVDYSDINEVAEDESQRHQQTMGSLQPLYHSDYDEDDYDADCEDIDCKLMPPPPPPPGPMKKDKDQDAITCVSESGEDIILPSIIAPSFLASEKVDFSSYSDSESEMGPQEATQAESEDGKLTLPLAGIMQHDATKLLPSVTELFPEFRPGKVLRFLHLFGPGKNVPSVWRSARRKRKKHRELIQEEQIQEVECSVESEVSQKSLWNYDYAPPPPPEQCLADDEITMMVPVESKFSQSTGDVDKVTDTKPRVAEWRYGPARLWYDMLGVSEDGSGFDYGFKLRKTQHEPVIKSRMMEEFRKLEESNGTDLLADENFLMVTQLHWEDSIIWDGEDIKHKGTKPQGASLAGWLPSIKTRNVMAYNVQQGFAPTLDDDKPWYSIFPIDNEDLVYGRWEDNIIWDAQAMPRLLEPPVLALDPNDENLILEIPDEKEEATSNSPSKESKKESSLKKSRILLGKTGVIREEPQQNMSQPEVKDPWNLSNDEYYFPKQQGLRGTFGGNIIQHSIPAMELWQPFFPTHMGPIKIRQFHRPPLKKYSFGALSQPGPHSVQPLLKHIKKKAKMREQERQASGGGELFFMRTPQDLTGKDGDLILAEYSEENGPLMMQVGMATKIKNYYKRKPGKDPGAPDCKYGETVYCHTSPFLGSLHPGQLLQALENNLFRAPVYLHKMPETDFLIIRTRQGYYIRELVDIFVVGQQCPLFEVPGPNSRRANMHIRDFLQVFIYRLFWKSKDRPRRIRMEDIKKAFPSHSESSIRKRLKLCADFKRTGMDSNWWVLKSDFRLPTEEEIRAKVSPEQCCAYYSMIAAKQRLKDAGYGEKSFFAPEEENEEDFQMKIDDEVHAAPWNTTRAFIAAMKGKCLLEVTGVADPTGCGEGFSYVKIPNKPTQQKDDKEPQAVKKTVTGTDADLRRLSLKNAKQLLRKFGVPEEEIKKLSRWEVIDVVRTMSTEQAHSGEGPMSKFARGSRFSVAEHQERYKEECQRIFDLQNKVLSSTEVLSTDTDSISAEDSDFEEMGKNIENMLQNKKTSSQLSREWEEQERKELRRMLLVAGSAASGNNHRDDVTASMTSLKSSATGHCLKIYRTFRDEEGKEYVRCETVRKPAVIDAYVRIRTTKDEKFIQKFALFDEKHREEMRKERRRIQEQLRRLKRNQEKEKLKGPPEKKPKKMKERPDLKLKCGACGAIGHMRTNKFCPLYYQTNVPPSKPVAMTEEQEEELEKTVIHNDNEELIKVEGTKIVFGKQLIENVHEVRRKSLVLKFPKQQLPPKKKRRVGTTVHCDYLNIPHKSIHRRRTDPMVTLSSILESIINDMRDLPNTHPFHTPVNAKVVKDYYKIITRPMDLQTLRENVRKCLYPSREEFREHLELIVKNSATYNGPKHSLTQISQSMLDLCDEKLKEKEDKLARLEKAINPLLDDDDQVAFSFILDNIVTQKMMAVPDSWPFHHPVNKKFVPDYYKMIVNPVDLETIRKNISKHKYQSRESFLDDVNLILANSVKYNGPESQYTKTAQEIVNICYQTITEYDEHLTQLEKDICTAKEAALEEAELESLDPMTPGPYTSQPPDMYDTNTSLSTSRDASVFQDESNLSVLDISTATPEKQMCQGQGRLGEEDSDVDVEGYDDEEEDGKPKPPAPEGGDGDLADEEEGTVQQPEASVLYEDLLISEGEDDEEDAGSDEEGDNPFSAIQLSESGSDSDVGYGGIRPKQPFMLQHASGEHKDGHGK
Sequence of Epidermal growth factor receptor (P00533 whole entry): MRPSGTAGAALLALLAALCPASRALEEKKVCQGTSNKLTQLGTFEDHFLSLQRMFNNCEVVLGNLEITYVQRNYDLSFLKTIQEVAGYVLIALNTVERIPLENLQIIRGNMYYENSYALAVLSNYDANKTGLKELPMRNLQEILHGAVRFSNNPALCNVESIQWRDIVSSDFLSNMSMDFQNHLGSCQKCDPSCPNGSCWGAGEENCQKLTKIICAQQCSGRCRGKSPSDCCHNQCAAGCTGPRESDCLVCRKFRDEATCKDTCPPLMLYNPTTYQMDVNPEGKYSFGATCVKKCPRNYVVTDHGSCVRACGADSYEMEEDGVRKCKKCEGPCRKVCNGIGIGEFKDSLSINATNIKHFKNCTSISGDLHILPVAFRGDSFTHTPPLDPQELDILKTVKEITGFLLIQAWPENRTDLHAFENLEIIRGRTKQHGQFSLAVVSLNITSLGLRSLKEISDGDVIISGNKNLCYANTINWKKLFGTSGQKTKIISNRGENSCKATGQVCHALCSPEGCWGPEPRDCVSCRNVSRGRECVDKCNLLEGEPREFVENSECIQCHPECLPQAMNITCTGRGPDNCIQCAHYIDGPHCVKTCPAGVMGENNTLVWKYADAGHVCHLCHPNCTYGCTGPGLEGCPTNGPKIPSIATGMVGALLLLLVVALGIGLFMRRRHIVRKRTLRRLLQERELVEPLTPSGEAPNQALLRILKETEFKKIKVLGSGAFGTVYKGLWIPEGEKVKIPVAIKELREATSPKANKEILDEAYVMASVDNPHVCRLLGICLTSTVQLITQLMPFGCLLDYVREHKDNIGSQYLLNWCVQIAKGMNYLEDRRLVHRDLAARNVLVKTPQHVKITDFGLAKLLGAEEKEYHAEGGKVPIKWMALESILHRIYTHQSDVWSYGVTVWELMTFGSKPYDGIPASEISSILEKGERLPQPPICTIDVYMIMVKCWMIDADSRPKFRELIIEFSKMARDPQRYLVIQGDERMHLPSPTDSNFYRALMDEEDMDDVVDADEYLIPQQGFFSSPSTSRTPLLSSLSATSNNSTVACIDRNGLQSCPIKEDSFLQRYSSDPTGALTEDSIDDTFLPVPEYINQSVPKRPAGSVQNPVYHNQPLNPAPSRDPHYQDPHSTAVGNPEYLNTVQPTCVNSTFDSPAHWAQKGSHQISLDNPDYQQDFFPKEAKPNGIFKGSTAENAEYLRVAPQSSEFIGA

dTM [1]: < 2 K
Compound: CN(C)CCCOc1ccc(-c2cc(NCCCn3cccn3)nc(S(C)(=O)=O)n2)cc1

Compound: O=C(NOC[C@H](O)CO)c1ccc(F)c(F)c1Nc1ccc(I)cc1F
% of control [2]: 77%

IC50 [3]: > 30 µM
Compound: CCC(=O)N1CC[C@H](Nc2ncnc3c2CN(c2cnc(OC)c(C(F)(F)F)c2)CC3)C1 [LENIOLISIB]

% of inhibition ([4]; at 0.01 µM): -6.8%
% of inhibition ([4]; at 0.04 µM): -5.9%
% of inhibition ([4]; at 0.2 µM): -9.3%
% of inhibition ([4]; at 1 µM): 4%
% of inhibition ([4]; at 5 µM): 11.1%
Compound: CC[C@@H]1[C@H](F)C(=O)N[C@@H]1COc1nccc2cc(C(N)=O)c(OC)cc12 [ZIMLOVISERTIB]

Compound: COCC(=O)NC/C=C/c1ccc2ncnc(Nc3ccc(Oc4ccc(C)nc4)c(C)c3)c2c1 [CP-724714]
% of control [5]: 65%

% of control [6]: 104%
Compound: CC(=O)Nc1cccc(-n2c(=O)n(C3CC3)c(=O)c3c(Nc4ccc(I)cc4F)n(C)c(=O)c(C)c32)c1

Compound: COc1cc(N(C)c2ccnc3ccc(C(F)(F)F)cc23)cc(OC)c1OC
% binding [7]: 80%

Compound: Cc1cc([C@@H](C)Nc2ccccc2C(=O)O)c2nc(N3CCOCC3)cc(=O)n2c1 [AZD-6482]
% of control [8]: 100%
